These results are taken from patent US11865108B2, “Nitrogen containing bicyclic compounds” (Wockhardt Limited, priority 2019, dated 2024).

Converted amounts (≈) assume the structure as drawn. Where only a bound is given, the exact number is not on record here.

One series deals with E. Coli M 50. The series can be described thus: Agar dilution MIC, E. Coli M 50. In kind it is cell-based. Particulars: Escherichia coli. The protocol: (§1) The biological activity of representative compounds according to the invention against various bacterial strains was investigated. In a typical study, overnight grown bacterial cultures were diluted appropriately and inoculated on the agar media containing doubling dilutions of the test compounds. Observations for growth or no growth was performed after 16-20 hours of incubation at 35±2° C. in the ambient air. The overall procedure was performed as per Clinical and Laboratory Standards Institute (CLSI) recommendations, (Clinical and Laboratory Standards Institute (CLSI), Performance Standards for Antimicrobial Susceptibility Testing, 20th Informational Supplement, M07-A9, Volume 32, No. 2, 2012). Molten Mueller Hinton Agar (MHA) (BD, USA) containing serial dilutions of each antibacterial agent were poured on to the plates and allowed to solidify. Appropriate suspensions from the freshly grown cultures were prepared in normal saline so that about 10^4 CFU/spot of the organism was delivered on to the drug containing agar plates using automated multipoint inoculator (Mast, UK). The plates were incubated in Biochemical oxygen demand (BOD) incubator at 37° C. for 18 hours and then examined for growth. […] The Table 2 depicts the antibacterial activity profile of compounds according to present invention against various multidrug resistant bacterial strains.

The test system of another series is E. Coli 13353. The series can be described thus: Agar dilution MIC, E. Coli 13353. The note with it: Escherichia coli. In kind it is cell-based. The protocol: as §1
For orientation: Agar dilution tests growth on a series of plates holding different concentrations.

In another series the test system is K. pneumoniae B 88. The series is described as follows: MIC alone and in combination, K. pneumoniae B 88. In kind it is cell-based. The note with it: Klebsiella pneumoniae, B88, 18 h, beta lactamase NDM, ESBL, alone or in combination as labelled. The protocol:
as §1
(§2) The antibacterial activity of compounds according to the invention was also investigated in combination with several antibacterial agents. For example, antibacterial activity of the representative compounds of Formula (I) (Example 1 and Example 2) in combination with Ceftazidime and Cefixime are summarized in Table 3.

The next series has as its system K. pneumoniae NCTC 13443. The series can be described thus: MIC alone and in combination, K. pneumoniae NCTC 13443. In kind it is cell-based. The note with it: Klebsiella pneumoniae, NCTC13443, 18 h, beta lactamase NDM, ESBL, alone or in combination as labelled. The protocol:
as §1, §2

For the next series, the system named is E. Coli M 36. The series can be described thus: Agar dilution MIC, E. Coli M 36. In kind it is cell-based. The note with it: Escherichia coli. The procedure:
as §1

The subject of a further series is K. pneumoniae H 521. The series is described as follows: Agar dilution MIC, K. pneumoniae H 521. In kind it is cell-based. Particulars: Klebsiella pneumoniae, H521. The procedure: as §1
The test system of a further series is K. pneumoniae B 77. The series is described as follows: MIC alone and in combination, K. pneumoniae B 77. The note with it: Klebsiella pneumoniae, B77, 18 h, beta lactamase NDM, ESBL, alone or in combination as labelled. In kind it is cell-based. The protocol: as §1, §2
The test system of another series is E. Coli S 18. The series is described as follows: Agar dilution MIC, E. Coli S 18. In kind it is cell-based. The note with it: Escherichia coli. The procedure:
as §1

The test system of a further series is E. Coli 13351. The series can be described thus: Agar dilution MIC, E. Coli 13351. In kind it is cell-based. Particulars: Escherichia coli. The procedure:
as §1

A further series relates to K. pneumoniae H 522. The series can be described thus: Agar dilution MIC, K. pneumoniae H 522. In kind it is cell-based. The note with it: Klebsiella pneumoniae, H522. The protocol:
as §1

In a further series the test system is K. pneumoniae H 525. The series can be described thus: Agar dilution MIC, K. pneumoniae H 525. In kind it is cell-based. The note with it: Klebsiella pneumoniae, H525. The procedure: as §1
Another series deals with K. pneumoniae NCTC 13439. The series can be described thus: MIC alone and in combination, K. pneumoniae NCTC 13439. In kind it is cell-based. The note with it: Klebsiella pneumoniae, NCTC13439, 18 h, beta lactamase VIM-1, alone or in combination as labelled. The procedure:
as §1, §2

Series [1] has as its system Multi Drug Resistant (MDR) Gram negative strains. The series can be described thus: Antibacterial activity alone and in combination, summary of Table 3. In kind it is cell-based, K. pneumoniae. The protocol:
as §1, §2

Another series concerns K. pneumoniae H 523. The series is described as follows: Agar dilution MIC, K. pneumoniae H 523. In kind it is cell-based. Particulars: Klebsiella pneumoniae, H523. The protocol: as §1
The subject of a further series is K. pneumoniae S 465. The series can be described thus: MIC alone and in combination, K. pneumoniae S 465. In kind it is cell-based. The note with it: Klebsiella pneumoniae, S465, 18 h, beta lactamase OXA-181, ESBL, alone or in combination as labelled. The procedure:
as §1, §2

Another series deals with KP ATCC 700603. The series is described as follows: Agar dilution MIC, KP ATCC 700603. In kind it is cell-based, K. pneumoniae. Particulars: Klebsiella pneumoniae, ATCC700603. The protocol:
as §1

The subject of another series is E. Coli M 49. The series can be described thus: Agar dilution MIC, E. Coli M 49. In kind it is cell-based. The note with it: Escherichia coli. The protocol: as §1
A further series relates to E. Coli 13352. The series is described as follows: Agar dilution MIC, E. Coli 13352. In kind it is cell-based. The note with it: Escherichia coli. The protocol: as §1
Another series has as its system E. Coli M 138. The series is described as follows: Agar dilution MIC, E. Coli M 138. In kind it is cell-based. Particulars: Escherichia coli. The protocol: as §1
Another series concerns E. Coli 7 MP. The series is described as follows: Agar dilution MIC, E. Coli 7 MP. In kind it is cell-based. The note with it: Escherichia coli. The protocol: as §1

The term MIC denotes the least concentration at which growth counts as inhibited. As a reminder, the melting point is the temperature of the solid-liquid transition. In the case of `C[C@H]1CN[C@H](CONC(=O)[C@@H]2CC[C@@H]3CN2C(=O)N3OS(=O)(=O)O)C1` [Example 1, (2S,5R)—N-{[(2S,4R)-4-methylpyrrolidin-2-yl]methyloxy}-7-oxo-6-(sulfooxy)-1,6-diazabicyclo[3.2.1]octane-2-carboxamide], the melting point was 172 to 174 °C (dec.). In addition, the MIC in the series with E. Coli M 50 was 0.5 µg/mL (≈ 1.32 µM). Further, the MIC against E. Coli 13353 was 0.5 µg/mL (≈ 1.32 µM). Further, the MIC in the series with K. pneumoniae B 88 is > 32 µg/mL. Also, the MIC in the series with K. pneumoniae NCTC 13443 was > 32 µg/mL. This molecule registered an MIC against E. Coli M 36 of 0.5 µg/mL (≈ 1.32 µM). Besides, it took 1 µg/mL (≈ 2.64 µM) to inhibit growth against K. pneumoniae H 521 (MIC). Also, the MIC in the series with K. pneumoniae B 77 is > 32 µg/mL. In the series with E. Coli S 18, the lowest concentration to inhibit growth (MIC) was 1 µg/mL (≈ 2.64 µM). The same molecule displayed an MIC against E. Coli 13351 of 1 µg/mL (≈ 2.64 µM). Also, the lowest concentration to inhibit growth against K. pneumoniae H 522 (MIC) was 1 µg/mL (≈ 2.64 µM). Besides, in the series on K. pneumoniae H 525, 0.5 µg/mL (≈ 1.32 µM) was the least that counted as inhibitory (MIC). The MIC in the series on K. pneumoniae NCTC 13439 was > 32 µg/mL. In [1] (in combination with Ceftazidime and Cefixime, highly resistant bacterial strains), the “antibacterial effect in combination” value is “unusual and unexpected synergistic antibacterial effect”. In series [1] (used alone, strains of Table 3), the “antibacterial activity when used alone” value is “did not exhibit significant antibacterial activity”. In the series on K. pneumoniae H 523, the MIC was found to be 0.5 µg/mL (≈ 1.32 µM). In the series with K. pneumoniae S 465, the MIC is > 32 µg/mL. In addition, the MIC against KP ATCC 700603 is > 32 µg/mL. This molecule registered an MIC with E. Coli M 49 of 4 µg/mL (≈ 10.6 µM). In the series with E. Coli 13352, this molecule registered an MIC of 1 µg/mL (≈ 2.64 µM). In the series on E. Coli M 138, the MIC is 0.5 µg/mL (≈ 1.32 µM). Also, in the series on E. Coli 7 MP, the MIC was 1 µg/mL (≈ 2.64 µM).
